This note sets out measurements from US10793526B2, “Hydantoin derivative compounds, methods of use and methods of treatment” (University of South Florida, priority 2016, dated 2020).

Test [1] has as its system methicillin-resistant S. epidermidis (MRSE, RP62A). Kind of test: Minimum inhibitory concentration (MIC) assay, MRSE. The test is classed as cell-based, Staphylococcus epidermidis. Conditions: Gram positive, 16 h incubation; for MIC: Staphylococcus epidermidis, MRSE, read-out: MIC (μg/mL) MRSE. The method, then: (§1) Minimum inhibitory concentrations (MICs) assay.^2
(§2) All compounds were tested against six different bacteria strains: methicillin-resistant S. aureus (MRSA, ATCC 33591), E. coli (ATCC 25922), methicillin-resistant S. epidermidis (MRSE, RP62A), K. pneumoniae (ATCC 13383), vancomycin-resistant Enterococcus faecalis (VREF, ATCC 700802), P. aeruginosa (ATCC 27853). One colony of each bacteria was inoculated in 4 mL TSB buffer at 37° C. overnight, which was then diluted 100 times, and the bacteria were allowed to grow to the mid-logarithmic phase. 50 μL hydantoin compounds in 2-fold serial dilution of TSB were added in the 96-well plate, then 50 μL diluted bacterial in TSB medium (1×10^6 CFU/mL) was added to each well. After 16 h of incubation at 37° C., the absorption at 600 nm wavelength on a Biotek Synergy HT microtiter plate reader was recorded. Minimum inhibitory concentrations were determined as the lowest concentrations that inhibited bacteria growth completely.

Test [2] concerns methicillin-resistant S. aureus (MRSA, ATCC 33591). Kind of test: Minimum inhibitory concentration (MIC) assay, MRSA. Type of test: cell-based, Staphylococcus aureus. Conditions: Gram positive, ATCC 33591, 16 h incubation; for MIC: Staphylococcus aureus, read-out: MIC (μg/mL) MRSA. The method, then:
as §1, §2

In test [3] the test system is E. coli (ATCC 25922). The experiment in a line: Minimum inhibitory concentration (MIC) assay, E. coli. The test is classed as cell-based, Escherichia coli. Conditions: 16 h incubation; for MIC: Escherichia coli, ATCC25922, Gram negative, read-out: MIC (μg/mL) E. coli; for MIC (μg/mL) E. coli: Gram negative. The method, then:
as §1, §2

Test [4] has as its system vancomycin-resistant Enterococcus faecalis (VREF, ATCC 700802). Kind of test: Minimum inhibitory concentration (MIC) assay, VREF. Type of test: cell-based. Particulars: 16 h incubation; for MIC: Enterococcus faecalis, ATCC700802, Gram positive, read-out: MIC (μg/mL) VREF; for MIC (μg/mL) VREF: Gram positive. On the procedure: as §1, §2
Test [5] concerns panel of Gram-positive and Gram-negative bacteria. Kind of test: Antimicrobial activity against the whole panel of bacteria. Particulars: for antimicrobial activity across the tested bacterial strains: all tested strains; for antibacterial activity of compounds with HPLC RT values less than 26 min: statement relating activity to retention time. The test is classed as cell-based. On the procedure: as §1, §2

Test [6] relates to P. aeruginosa (ATCC 27853). Kind of test: Minimum inhibitory concentration (MIC) assay, P. aeruginosa. The test is classed as cell-based, Pseudomonas aeruginosa. Conditions: for MIC: Pseudomonas aeruginosa, ATCC27853, read-out: MIC (μg/mL) P.A.; for MIC / MIC (μg/mL) P.A.: Gram negative, ATCC 27853, 16 h incubation. The method, then:
as §1, §2

Test [7] deals with K. pneumoniae (ATCC 13383). The experiment in a line: Minimum inhibitory concentration (MIC) assay, K. pneumoniae. The test is classed as cell-based, Klebsiella pneumoniae. Particulars: 16 h incubation; for MIC: Klebsiella pneumoniae, ATCC13383, Gram negative, read-out: MIC (μg/mL) K.P.; for MIC (μg/mL) K.P.: Gram negative. The method, then: as §1, §2

Regarding `CCCCCCCCCC(=O)N[C@@H](CCCCN)CN1CC(=O)N(CC)C1=O` [Compound 1, (S)—N-(6-amino-1-(3-ethyl-2,4-dioxoimidazolidin-1-yl)hexan-2-yl)decanamide], the MIC in test [1], in test [2], in test [3], in test [4], in test [6] and in test [7] was more than 50 µg/mL each time. Besides, in test [5], the “antimicrobial activity across the tested bacterial strains” value is “doesn't exhibit any activity”. Besides, in test [5], the “antibacterial activity of compounds with HPLC RT values less than 26 min” value (from here on “antibacterial activity of compounds”) was “no apparent antibacterial activity”.
As to `CCCCCCCCCCCC(=O)N[C@@H](CCCCN)CN1CC(=O)N(CC)C1=O` [Compound 2, (S)—N-(6-amino-1-(3-ethyl-2,4-dioxoimidazolidin-1-yl)hexan-2-yl)dodecanamide], the MIC in test [1] was more than 50 µg/mL; in test [2], more than 50 µg/mL; in test [3], 12.5 µg/mL; in test [4] it was more than 50 µg/mL; in test [6] it was more than 50 µg/mL; in test [7], more than 50 µg/mL. In addition, in test [5], the “antibacterial activity of compounds” value is recorded as “no apparent antibacterial activity”.
With `CCCCCCCCCCCCCCCC(=O)N[C@@H](CCCCN)CN1CC(=O)N(CC)C1=O` [Compound 4, (S)—N-(6-amino-1-(3-ethyl-2,4-dioxoimidazolidin-1-yl)hexan-2-yl)palmitamide], the MIC in test [1] was 3.12 µg/mL; in test [2], 3.12 µg/mL; in test [3], 3.12 µg/mL; in test [4], 3.12 µg/mL; in test [6] it was more than 50 µg/mL; in test [7], 12.5 µg/mL. The “antibacterial activity of compounds” value in test [5] is “no apparent antibacterial activity”. Further, in test [6] (under the tested condition), the “activity toward Pseudomonas aeruginosa” value is listed as “abolishes its activity”.
For `CCCCCCCCCC(=O)N[C@@H](CCCCN)CN1CC(=O)N(CCCC)C1=O` [Compound 5, (S)—N-(6-amino-1-(3-butyl-2,4-dioxoimidazolidin-1-yl)hexan-2-yl)decanamide], the MIC in test [1], in test [2], in test [3], in test [4], in test [6] and in test [7] was more than 50 µg/mL in each case. Moreover, the “antimicrobial activity across the tested bacterial strains” value in test [5] was “doesn't have any antimicrobial activity”. Besides, the “antibacterial activity of compounds” value in test [5] is recorded as “no apparent antibacterial activity”.
Turning to `CCCCCCCCCCCCCC(=O)N[C@@H](CCCCN)CN1CC(=O)N(CCCC)C1=O` [Compound 7, (S)—N-(6-amino-1-(3-butyl-2,4-dioxoimidazolidin-1-yl)hexan-2-yl)tetradecanamide], the MIC was 6.25 µg/mL in test [1]; 6.25 µg/mL in test [2]; 6.25 µg/mL in test [3]; 6.25 µg/mL in test [4]; more than 50 µg/mL in test [6]; 12.5 µg/mL in test [7].
On to `CCCCCCCCCCCCCCCC(=O)N[C@@H](CCCCN)CN1CC(=O)N(CCCC)C1=O` [Compound 8, (S)—N-(6-amino-1-(3-butyl-2,4-dioxoimidazolidin-1-yl)hexan-2-yl)palmitamide], for which the MIC was 6.25 µg/mL in test [1]; 6.25 µg/mL in test [2]; more than 50 µg/mL in test [3]; 6.25 µg/mL in test [4]; more than 50 µg/mL in test [6]; more than 50 µg/mL in test [7].
For `CCCCCCCCCCCCCC(=O)N[C@@H](CCCCN)CN1CC(=O)N(C2CCCCC2)C1=O` [Compound 11, (S)—N-(6-amino-1-(3-cyclohexyl-2,4-dioxoimidazolidin-1-yl)hexan-2-yl)tetradecanamide], the MIC in test [1] is 6.25 µg/mL; in test [2] it was 3.12 µg/mL; in test [3] it was 12.5 µg/mL; in test [4], 6.25 µg/mL; in test [6], more than 50 µg/mL; in test [7], 6.25 µg/mL.
`CCCCCCCCCCCCCCCC(=O)N[C@@H](CCCCN)CN1CC(=O)N(C2CCCCC2)C1=O` [Compound 12, (S)—N-(6-amino-1-(3-cyclohexyl-2,4-dioxoimidazolidin-1-yl)hexan-2-yl)palmitamide]: the MIC is 25 µg/mL in test [1]; 3.12 µg/mL in test [2]; more than 50 µg/mL in test [3]; 25 µg/mL in test [4]; more than 50 µg/mL in test [6]; more than 50 µg/mL in test [7].
Regarding `CCCCCCCCCCCC(=O)N[C@@H](CCCCN)CN1CC(=O)N(C23CC4CC(CC(C4)C2)C3)C1=O` [Compound 14, N—((S)-1-(3-((3R,5R,7R)-adamantan-1-yl)-2,4-dioxoimidazolidin-1-yl)-6-aminohexan-2-yl) dodecanamide], the “MIC (μg/mL) MRSE” value in test [1] worked out at 6.25 µg/mL. In addition, the “MIC (μg/mL) MRSA” value in test [2] was found to be 6.25 µg/mL. Further, the “MIC (μg/mL) E. coli” value in test [3] was found to be 12.5 µg/mL. Also, the “MIC (μg/mL) VREF” value in test [4] came to 6.25 µg/mL. Besides, the “MIC (μg/mL) P.A.” value in test [6] is more than 50 µg/mL. Moreover, the “MIC (μg/mL) K.P.” value in test [7] was more than 50 µg/mL.
For the molecule `CCCCCCCCCCCCCC(=O)N[C@@H](CCCCN)CN1CC(=O)N(C23CC4CC(CC(C4)C2)C3)C1=O` [Compound 15, N—((S)-1-(3-((3R,5R,7R)-adamantan-1-yl)-2,4-dioxoimidazolidin-1-yl)-6-aminohexan-2-yl) tetradecanamide], in test [1], the “MIC (μg/mL) MRSE” value is 3.15 µg/mL. Also, in test [2], the “MIC (μg/mL) MRSA” value was 3.12 µg/mL. Also, the “MIC (μg/mL) E. coli” value in test [3] is more than 50 µg/mL. Moreover, in test [4], the “MIC (μg/mL) VREF” value was determined as 6.25 µg/mL. Further, the “MIC (μg/mL) P.A.” value in test [6] was more than 50 µg/mL. For the same molecule, in test [7], the “MIC (μg/mL) K.P.” value is more than 50 µg/mL.
As for `CCCCCCCCCCCCCCCC(=O)N[C@@H](CCCCN)CN1CC(=O)N(C23CC4CC(CC(C4)C2)C3)C1=O` [Compound 16, N—((S)-1-(3-((3R,5R,7R)-adamantan-1-yl)-2,4-dioxoimidazolidin-1-yl)-6-aminohexan-2-yl) palmitamide], in test [1], the “MIC (μg/mL) MRSE” value is more than 50 µg/mL. In addition, in test [2], the “MIC (μg/mL) MRSA” value was more than 50 µg/mL. In addition, the “MIC (μg/mL) E. coli” value in test [3] was more than 50 µg/mL. In addition, the “MIC (μg/mL) VREF” value in test [4] is more than 50 µg/mL. Moreover, the “MIC (μg/mL) P.A.” value in test [6] was more than 50 µg/mL. Besides, the “MIC (μg/mL) K.P.” value in test [7] was more than 50 µg/mL.
In the case of `CCCCCCCCCCCCCC(=O)N[C@@H](CCCCN)CN1CC(=O)N(c2ccc(OC)cc2)C1=O` [Compound 19, (S)—N-(6-amino-1-(3-(4-methoxyphenyl)-2,4-dioxoimidazolidin-1-yl)hexan-2-yl)tetradecanamide], the MIC in test [1] was 6.25 µg/mL; in test [2], 6.25 µg/mL; in test [3], 6.25 µg/mL; in test [4], 6.25 µg/mL; in test [6], more than 50 µg/mL; in test [7] it was 25 µg/mL.
Regarding `CCCCCCCCCCCCCCCC(=O)N[C@@H](CCCCN)CN1CC(=O)N(c2ccc(OC)cc2)C1=O` [Compound 20, (S)—N-(6-amino-1-(3-(4-methoxyphenyl)-2,4-dioxoimidazolidin-1-yl)hexan-2-yl)palmitamide], the MIC is 6.25 µg/mL in test [1]; 3.12 µg/mL in test [2]; more than 50 µg/mL in test [3]; 6.25 µg/mL in test [4]; more than 50 µg/mL in test [6]; more than 50 µg/mL in test [7].
Regarding `CCCCCCCCCCCCCC(=O)N[C@@H](CCCCN)CN1CC(=O)N(c2cccc(Cl)c2)C1=O` [Compound 23, (S)—N-(6-amino-1-(3-(3-chlorophenyl)-2,4-dioxoimidazolidin-1-yl)hexan-2-yl)tetradecanamide], the MIC was 12.5 µg/mL in test [1]; 12.5 µg/mL in test [2]; more than 50 µg/mL in test [3]; 12.5 µg/mL in test [4]; more than 50 µg/mL in test [6]; more than 50 µg/mL in test [7].
With `CCCCCCCCCCCCCCCC(=O)N[C@@H](CCCCN)CN1CC(=O)N(c2cccc(Cl)c2)C1=O` [Compound 24, (S)—N-(6-amino-1-(3-(3-chlorophenyl)-2,4-dioxoimidazolidin-1-yl)hexan-2-yl)palmitamide], the MIC in test [1] was 12.5 µg/mL; in test [2], 12.5 µg/mL; in test [3], more than 50 µg/mL; in test [4], 12.5 µg/mL; in test [6] it was more than 50 µg/mL; in test [7], more than 50 µg/mL.
